{"source": "patent US12440479B2", "about": "“Prevention or treatment of chronic organ injury” (GEORG-AUGUST-UNIVERSITAET GOETTINGEN, STIFTUNG …, priority 2018, dated 2025)", "key": {"[1]": {"tested_on": "intrarenal ARNT/ALK3 signaling", "test": "UUO kidneys: ARNT/ALK3 expression and pSmad1/5/8 (qRT-PCR, immunoblotting, immunostaining)", "type": "in vivo, mice", "details": "for intrarenal ARNT, ALK3 and nuclear pSmad1/5/8 immunostaining: UUO, VMO 12.5 mg/kg intraperitoneally or FK506 0.2 mg/kg orally per day", "procedure": "Eight to twelve weeks-old C57/6, yGTcre−;Yy1fl/fl and yGTcre+;Yy1fl/fl mice were anesthetized with isoflurane inhalation (2-3%), analgesia was performed by subcutaneous injection of 0.1 mg/kg body weight per day Buprenorphine. The ureter was separated from the surrounding tissues and two ligatures were placed about 5 mm apart in upper two-thirds of the left ureter to obtain reliable obstruction. Mice were sacrificed 3, 7 or 10 days after ureteral obstruction for further analyses, as described before (53, 153-155).\nParaffin-embedded specimens were deparaffinized in xylene and rehydrated in ethanol containing distilled water. Tissue sections were stained using polyclonal antibodies against ALK3 (sc-20736, Santa Cruz Biotechnology, Dallas, USA) and ARNT (3718S, Cell Signaling, Danvers, USA), peroxidase labeling was performed using Vectastain Universal Elite ABC Kit (Vector Laboratories, Burlingame, USA) according to the manufacturer's protocol. AEC Substrate-Chromogen (Dako, Glostrup, Denmark) was applied for peroxidase visualization according to the manufacturer's protocol. Nuclear counterstain was performed by using Mayer's Hematoxylin Solution (Sigma, St. Louis, USA).\n(§1) For immunofluorescent staining, primary antibodies against ARNT (5537S, Cell Signaling, Danvers, USA), Hif1α (H6535, Sigma, St. Louis, USA), Hif2α (ab20654, Abcam Biochemicals, Cambridge, UK), phosphorylated Smad1/5/8 (pSmad1/5/8, sc-12353, Santa Cruz Biotechnology, Dallas, USA), CD45 (550539, BD Biosciences, Franklin Lakes, USA), Collagen-1 (ab34710, Abcam Biochemicals, Cambridge, UK), α-smooth muscle actin (aSMA, A5228, Sigma, St. Louis, USA), FKBP12 (ab2918, Abcam Biochemicals, Cambridge, UK) and YY1 (ab12132, Abcam Biochemicals, Cambridge, UK) were used, secondary antibodies were labeled with Alexa Fluor 488 or 568 (Life Technologies, Carlsbad, USA). Renal basement membranes were stained with antibodies against Collagen-4 (1340-30, SouthernBiotech, Birmingham, USA), cardiac cell membranes with antibodies against WGA (W11261, Life Technologies, Carlsbad, USA). Nuclear staining was performed using 4′,6-diamidino-2-phenylindole (DAPI, Vector Laboratories, Burlingame, USA). Relative areas positive for Collagen-1, aSMA, tubular nuclei positive for ARNT and pSmad1/5/8 were quantified in 10 high power fields per section at 400× magnification.\nFor SYBR-based real-time PCR, cDNA synthesis was performed by using DNase I digestion (Invitrogen, Carlsbad, USA) and SuperScript II Reverse Transcriptase (Invitrogen, Carlsbad, USA) according to the manufacturer's protocol. 1 μL of reverse-transcribed cDNA was added to the reaction mixture containing the primer pair (200 nmol/L each) and diluted 2× Fast SYBR Green Master Mix (Applied Biosystems, Carlsbad, USA) in a final volume of 20 μL for each PCR reaction. The real-time PCR reactions were performed in a 96-well reaction plate using the StepOne Plus Real-Time System (Applied Biosystems, Carlsbad, USA) and were done in triplicates. An initiation step at 95° C. for 20 seconds was followed by 40 cycles at 95° C. for 3 to seconds and 60° C. for 30 seconds, with one cycle of dissociation at 95° C. for 15 seconds, 60° C. for 60 seconds, and 95° C. for 15 seconds. The intercalation of SYBR Green dye and its fluorescent signal is directly proportional to the amount of amplified DNA and was transformed into the cycle threshold (Ct). For normalization, the Ct values of the housekeeping genes Gapdh and Actb were subtracted from the Ct values of the gene of interest to generate the dCt values. The relative expression levels were calculated using the equation 2^−ddCt.\nTissue and cells were homogenized in NP40 lysis buffer (Life technologies, Carlsbad, USA) supplemented with protease inhibitor cocktail (Roche, Basel, Switzerland)."}, "[2]": {"tested_on": "UUO-challenged kidneys", "test": "Unilateral ureteral obstruction (UUO): tubular injury and interstitial fibrosis (histology, immunostaining)", "type": "in vivo, mice", "details": "UUO; for tubular injury and tubulointerstitial fibrosis: VMO 12.5 mg/kg intraperitoneally or FK506 0.2 mg/kg orally per day; for effect of FK506 on ALK3 expression or reno-protection: VMO added to FK506"}, "[3]": {"tested_on": "FKBP12, YY1, ARNT", "test": "In vivo-morpholino knockdown: intrarenal protein levels (immunostaining, immunoblotting)", "details": "UUO mice, VMO 12.5 mg/kg intraperitoneally, vs control-VMO", "procedure": "Mice were injected intraperitoneally with 12.5 mg/kg body weight in vivo-morpholinos (Gene Tools, Philomath, USA) in saline at a final volume of 100 μL every other day starting two days prior of surgery (114), sequence alignments were performed using NCBI Nucleotide Blast and are listed in Tables 3-5 (157). A control in vivo-morpholino that targets a human β-globin intron mutation was used as standard control (116).\nas §1\nTissue and cells were homogenized in NP40 lysis buffer (Life technologies, Carlsbad, USA) supplemented with protease inhibitor cocktail (Roche, Basel, Switzerland). […] Luminescence was detected by using chemiluminescent substrate (Cell Signaling, Danvers, USA) on a ChemiDoc XRS system (Bio-Rad, Hercules, USA). […]"}, "[4]": {"tested_on": "ARNT/HIF1β homodimer", "test": "ARNT/HIF1β homodimer formation upon PP1/PP2A inhibition", "details": "for ARNT/HIF1β homodimer formation: Okadaic acid: PP1/PP2A inhibition, Tautomycin: PP1, LB-100: PP2A", "source_text": "Based on previous reports that combined inhibition of PP1/PP2A with Okadaic acid is capable to induce ARNT/HIF1β homodimer formation and transactivation activity by directly blocking ARNT dephosphorylation (163), the inventors first confirmed enhanced […] homodimer formation upon PP1/PP2A inhibition (FIG. 57A). […] See also FIG. 58."}, "[5]": {"tested_on": "parenchymal organs", "details": "LB-100 2 mg/kg in combination with FK506 0.2 mg/kg s.c. or GPI-1046 10 mg/kg s.c.", "quoted_text": "Mice were injected intraperitoneally with 2 mg/kg body weight LB-100 (LDN, Sigma, St. Louis, USA) every alternate day starting at the day of surgery, control mice received equivalent volume of vehicle buffer."}, "[6]": {"details": "FK506 0.02-5.0 mg/kg or CsA 10 mg/kg orally per day starting one day prior to UUO"}}}
{"compound": "Yy1-VMO: in vivo-morpholinos targeting translational start site of Yy1 (SEQ ID NO: 10) (antisense TGTAGAGGGTGTCGCCCGAGGCCAT; all phosphorodiamidate morpholino (PMO); in vivo-morpholino, delivery moiety not given here, further chemistry not fully specified)", "values": [{"measurement": "intrarenal ARNT, ALK3 and nuclear pSmad1/5/8 immunostaining", "setting": "[1]", "result": "equally induced"}, {"measurement": "tubular injury and tubulointerstitial fibrosis", "setting": "[2]", "result": "attenuated"}, {"measurement": "effect of FK506 on ALK3 expression or reno-protection", "setting": "[2]", "result": "did not further enhance"}, {"measurement": "intrarenal protein levels of respective transcript", "setting": "[3]", "result": "effectively reduced"}]}
{"compound": "Arnt-VMO: in vivo-morpholinos targeting translational start site of Arnt (antisense AAGAGCCACTCCGCAGATTAGGCAC; all phosphorodiamidate morpholino (PMO); in vivo-morpholino, delivery moiety not given here, further chemistry not fully specified)", "values": [{"measurement": "intrarenal protein levels of respective transcript", "setting": "[3]", "result": "effectively reduced"}]}
{"compound": "Fkbp12-VMO: in vivo-morpholinos targeting translational start site of Fkbp12 (SEQ ID NO: 9) (antisense AGATGGTCTCCACCTGCACTCCCAT; all phosphorodiamidate morpholino (PMO); in vivo-morpholino, delivery moiety not given here, further chemistry not fully specified)", "values": [{"measurement": "intrarenal ARNT, ALK3 and nuclear pSmad1/5/8 immunostaining", "setting": "[1]", "result": "equally induced"}, {"measurement": "tubular injury and tubulointerstitial fibrosis", "setting": "[2]", "result": "attenuated"}, {"measurement": "effect of FK506 on ALK3 expression or reno-protection", "setting": "[2]", "result": "did not further enhance"}, {"measurement": "intrarenal protein levels of respective transcript", "setting": "[3]", "result": "effectively reduced"}]}
{"compound": "C=C1[C@@H](O)[C@@H]2O[C@]3(CC[C@H](/C=C/[C@@H](C)[C@@H]4CC(C)=C[C@@]5(O[C@H](C[C@@](C)(O)C(=O)O)CC[C@H]5O)O4)O3)CC[C@H]2O[C@@H]1[C@@H](O)C[C@H](C)[C@H]1O[C@@]2(CCCCO2)CC[C@H]1C", "note": "[Okadaic acid]", "values": [{"measurement": "ARNT/HIF1β homodimer formation", "setting": "[4]", "result": "enhanced"}]}
{"compound": "CN1CCN(C(=O)C2C(C(=O)O)[C@H]3CC[C@@H]2O3)CC1", "note": "(stereo partly drawn) [LB-100]", "values": [{"measurement": "protection by FK506/GPI-1046", "setting": "[5]", "result": "enhances protection"}, {"measurement": "ARNT/HIF1β homodimer formation", "setting": "[4]", "result": "enhanced"}, {"measurement": "endogenous ARNT", "setting": "[4]; by protection from degradation", "result": "effectively increases"}, {"measurement": "ARNT homodimer formation (mass spectrometry)", "setting": "[4]; in the presence of LB-100", "result": "enhancement"}]}
{"compound": "Cyclosporine A [CsA]", "values": [{"measurement": "expression of ALK3", "setting": "[1]; UUO-challenged murine kidneys, treatment starting one day prior", "result": "failed to induce"}, {"measurement": "chronic tubular injury", "setting": "[2]; [6]", "result": "failed to attenuate"}, {"measurement": "interstitial fibrosis", "setting": "[2]; [6]", "result": "failed to attenuate"}]}
{"compound": "CO[C@H]([C@H](O)CC(=O)[C@@H](C)[C@@H](O)CC[C@@H](C)[C@@H]1O[C@]2(CC[C@@H](C)[C@H](CC[C@H](C)C(C)=O)O2)CC[C@@H]1C)[C@H](OC(=O)C[C@@H](O)C1=C(C)C(=O)OC1=O)C(C)C", "note": "[Tautomycin]", "values": [{"measurement": "ARNT/HIF1β homodimer formation", "setting": "[4]", "result": "did not affect"}]}
